In data set [1] the test system is HCT-15 (colon). In words: Sulforhodamine B growth inhibition, HCT-15 (colon). It is filed as cell-based, human. To be noted: for inhibition at 100 µM: Homo sapiens, HCT-15, read-out: Growth inhibition by cell line (%) HTC-15. As to the method:
(§1) For the evaluation of the cytotoxic effect of Andranone on neoplastic cells, 6 cell lines were used:
(§2) HCT-15 (colon), MCF-7 (breast), K-562 (leukemia), U-251 (central nervous system), PC-3 (prostate), SKUL (lung) and COST-7 (cervical uterus) from the National Cancer Institute (NCI) of the United States. The cytotoxicity of Andranone was determined in sixfold microcultures using preferable Andranone concentrations between 0.1 and 1.0 μM, more specifically between 0.1 and 0.6 μM and mostly between 0.1 and 0.3 μM. Cell viability and growth were measured indirectly by the sulforhodamine B method according to procedures validated by the NCI, using salicylic acid and Mezalasin as negative control compounds, and Cis-platinum as a control antineoplastic drug at concentrations of 100 μM.

In data set [2] the test system is U-251 cell line. In words: Fluorescence analysis of effect on the cell membrane. Type of data set: cell-based, human. To be noted: high and low concentration (10 and 100 μM). As to the method: To determine the Andranone action mechanism on neoplastic cells, a fluorescence analysis was performed on cells of the U-251 cell line treated with 10 and 100 μM of cis-platinum and 0.1 and 0.2 μM of Andranone.

Data set [3] deals with PC-3 (prostate). The data set is described as follows: Sulforhodamine B growth inhibition, PC-3 (prostate). It is filed as cell-based, human. The settings on record: for inhibition at 100 µM: Homo sapiens, read-out: Growth inhibition by cell line (%) PC-3. The procedure:
as §1, §2

Data set [4] concerns SKUL (lung). In words: Sulforhodamine B growth inhibition, SKUL (lung). Type of data set: cell-based, human. The settings on record: for inhibition at 100 µM: Homo sapiens, read-out: Growth inhibition by cell line (%) SKUL. The procedure: as §1, §2
For data set [5], the system named is COST-7 (cervical uterus). In words: Sulforhodamine B growth inhibition, COST-7 (cervical uterus). It is filed as cell-based, human. The settings on record: for inhibition at 100 µM: Homo sapiens, read-out: Growth inhibition by cell line (%) COST-7. The procedure:
as §1, §2

In data set [6] the test system is MCF-7 (breast). In words: Sulforhodamine B growth inhibition, MCF-7 (breast). Type of data set: cell-based, human. The settings on record: for inhibition at 100 µM: Homo sapiens, MCF7, read-out: Growth inhibition by cell line (%) MCF-7. The procedure: as §1, §2
Data set [7] concerns U-251 (central nervous system). In words: Sulforhodamine B growth inhibition, U-251 (central nervous system). It is filed as cell-based, human. The settings on record: for inhibition at 100 µM: Homo sapiens, U-251, read-out: Growth inhibition by cell line (%) U-251. The procedure:
as §1, §2

The subject of data set [8] is K-562 (leukemia). In words: Sulforhodamine B growth inhibition, K-562 (leukemia). It is filed as cell-based, human. The settings on record: for inhibition at 100 µM: Homo sapiens, K562, read-out: Growth inhibition by cell line (%) K-562. As to the method: as §1, §2
Data set [9] deals with A-549 (Lung carcinoma). In words: In vitro cytotoxic activity IC50, A-549. It is filed as cell-based, human. The text has this: (§3) Additionally, the cytotoxic activity was weighted by the IC50 of Andranone on 12 cell lines of neuronal origin, PFSK-1 (brain, cerebral hemisphere); A-172 (Glioblastoma, patient); SW1088 (Brain Fibroblast); Daoy (Brain, Cerebellum); 1321N1 (Normal brain cells) HT-29 (Colorectal Carcinoma); SW-620 (Colorectal carcinoma); H-358 (Lung carcinoma); A-549 (Lung carcinoma); LA-N-5 (Neuroblastoma); SK—N-SH (Neuroblastoma); and L-929 (Mouse fibrosarcoma) using Bevacizumab as a control. The IC50 determination of Andranone was carried out in microcultures in sixfold.

The test system of data set [10] is 1321N1 (Normal brain cells). In words: In vitro cytotoxic activity IC50, 1321N1. It is filed as cell-based, human.
Description: as §3

The subject of data set [11] is L-929 (Mouse fibrosarcoma). The data set is described as follows: In vitro cytotoxic activity IC50, L-929. It is filed as cell-based.
Description: as §3

Data set [12] concerns PFSK-1 (brain, cerebral hemisphere). The data set is described as follows: In vitro cytotoxic activity IC50, PFSK-1. Type of data set: cell-based, human.
Description: as §3

Data set [13] relates to H-358 (Lung carcinoma). The data set is described as follows: In vitro cytotoxic activity IC50, H-358. Type of data set: cell-based, human.
Description: as §3

Data set [14] concerns SW1088 (Brain Fibroblast). The data set is described as follows: In vitro cytotoxic activity IC50, SW1088. Type of data set: cell-based, human.
Description: as §3

Data set [15] deals with Daoy (Brain, Cerebellum). In words: In vitro cytotoxic activity IC50, Daoy. Type of data set: cell-based, human.
Description: as §3

Data set [16] concerns SW-620 (Colorectal carcinoma). The data set is described as follows: In vitro cytotoxic activity IC50, SW-620. Type of data set: cell-based, human.
Description: as §3

The test system of data set [17] is A-172 (Glioblastoma). The data set is described as follows: In vitro cytotoxic activity IC50, A-172. Type of data set: cell-based, human.
Description: as §3

For data set [18], the system named is SK-N-SH (Neuroblastoma). In words: In vitro cytotoxic activity IC50, SK-N-SH. It is filed as cell-based, human.
Description: as §3

Data set [19] deals with HT-29 (Colorectal Carcinoma). In words: In vitro cytotoxic activity IC50, HT-29. Type of data set: cell-based, human.
Description: as §3

In data set [20] the test system is LA-N-5 (Neuroblastoma). The data set is described as follows: In vitro cytotoxic activity IC50, LA-N-5. It is filed as cell-based, human.
Description: as §3

The subject of data set [21] is human peripheral blood lymphocytes. In words: Micronucleus test in human peripheral blood lymphocytes. It is filed as cell-based. The procedure:
[…] At 44 h, cytochalasin B (4.5 μg/mL) was added to all cultures and at 72 h the lymphocytes were harvested by centrifugation at 1500 rpm for 10 min. The cell bud was divided into 2 parts, one to perform the micronucleus test and the other was kept in PBS (pH 7.5) at −80° C. to perform the RT-qPCR tests.
For the micronucleus test, the first part of the cell bud was prefixed with 1 mL of Carnoy's fixative (3:1) and centrifuged at 1500 rpm for 10 min. The supernatant was removed, and the cell bud was resuspended. 5 mL of Carnoy fixative was added and centrifuged again at 1500 rpm for 10 min. This step was repeated 2 more times. Lamellae were made on slides using the drip technique and allowed to air dry. The samples were stained in 5% Giemsa dye and analyzed in the optical microscope at 40× to determine the frequency of micronuclei in 1000 cells (in duplicate).

Usually inhibition stands for the change of the read-out against control, counted positive when it falls. What is called pIC50 is the negative decadic logarithm of the IC50, by convention in mol/L. The low end stands for a large IC50, the high end for a small IC50.

pIC50: −log10 of the molar value. Some results are limits rather than exact numbers.

Consider `N.N.[Cl][Pt][Cl]` [Cisplatin], for which the “Growth inhibition by cell line (%) HTC-15” value in [1] (100 μM) is 87.49%. For the same compound, the “fluorescence analysis, cell membrane / cell death” value in data set [2] is listed as “cell membrane alteration without being so obvious”. In data set [3] (100 μM), the “Growth inhibition by cell line (%) PC-3” value was 32.42%. For the same compound, the “Growth inhibition by cell line (%) SKUL” value in data set [4] (100 μM) stood at 81.35%. Besides, in data set [5] (100 μM), the “Growth inhibition by cell line (%) COST-7” value is recorded as 43.39%. Besides, the “Growth inhibition by cell line (%) MCF-7” value in data set [6] (100 μM) is reported as 42.65%. Also, in data set [7] (100 μM), the “Growth inhibition by cell line (%) U-251” value is given as 65.9%. Also, the “Growth inhibition by cell line (%) K-562” value in [8] (100 μM) is reported as 79.15%.

`Nc1ccc(O)c(C(=O)O)c1` [Mesalazine]: the inhibition at 100 µM was below 3.1% in [1]; 3.1% in [3]; below 3.1% in data set [4]; below 3.1% in [5]; 11.9% in [6]; 6.3% in [7]. In addition, the inhibition at 100 µM in data set [8] was 8.1%.

Turning to `O=C(O)c1ccccc1O` [Salicylic acid], the inhibition at 100 µM is below 3.1% in data set [1]; 6.9% in data set [3]; 10.1% in data set [4]; 11.2% in [5]; 4.9% in [6]; 6.8% in [7]. Further, the inhibition at 100 µM in data set [8] worked out at 6.6%.

With “Bevacizumab: Bevacizumab used as a control in the IC50 determination”, the pIC50 is 3.98 in [9]; 4.40 in [10]; 3.90 in data set [11]; 4.51 in data set [12]; 3.94 in [13]; 4.33 in data set [14]. Also, the negative-log IC50 (pIC50) in data set [15] was 4.53; in data set [16] it was 4.57; in data set [17] it was 4.38; in data set [18], 4.05; in [19], 4.42; in data set [20], 4.10.

In turn, Bleomycin yielded an IDN in data set [21] (Bleomycin 3.2 μg/mL) of 1.60 ± 0.06. Besides, in data set [21] (Bleomycin 3.2 mg/mL), the IPBC is reported as 1.56 ± 0.05 and the “Relative cytotoxicity (%)” value came out at 34.50%. Further, the “frequency of MN” value in data set [21] (positive control, 3.2 μg/mL, 72 h) is listed as “significantly increased”.
